# Laboratory results published in US9505745B2, “Enhancer of zeste homolog 2 inhibitors” (GlaxoSmithKline Intellectual Property (No.2) Limited, priority 2013, dated 2016).
# Structures can show the parent of a compound that is named as a salt.
# Target: EZH2 within the PRC2 complex (Homo sapiens (Human), UniProt Q15910)
# Test: EZH2 methyltransferase SPA, biotinylated histone H3K27 peptide substrate (Assay Protocol 2)
# Type: biochemical
# Conditions: 3H-SAM, ≦10 nM approaches limit of detection
# Protocol: Compounds contained herein were evaluated for their ability to inhibit the methyltransferase activity of EZH2 within the PRC2 complex. Human PRC2 complex was prepared by co-expressing each of the 5 member proteins (FLAG-EZH2, EED, SUZ12, RbAp48, AEBP2) in Sf9 cells followed by co-purification. Enzyme activity was measured in a scintillation proximity assay (SPA) where a tritiated methyl group is transferred from 3H-SAM to a lysine residue on a biotinylated, unmethylated peptide substrate derived from histone H3. The peptides were captured on streptavidin-coated SPA beads and the resulting signal was read on a ViewLux plate reader.
# Part A. Compound Preparation
# • 4. Prepare 10 mM stock of compounds from solid in 100% DMSO. • 5. Set up an 11-point serial dilution (1:4 dilution, top concentration 10 mM) in 100% DMSO for each test compound in a 384 well plate leaving columns 6 and 18 for DMSO controls. • 6. Dispense 10 nL of compound from the dilution plate into reaction plates (Corning, 384-well polystyrene NBS, Cat#3673). Part B. Reagent Preparation Prepare the following solutions: • 7. 1× Base Buffer, 50 mM Tris-HCl, pH 8, 2 mM MgCl2: Per 1 L of base buffer, combine 1 M Tris-HCl, pH 8 (50 mL), 1 M MgCl2 (2 mL), and distilled water (948 mL). • 8. 1× Assay Buffer: Per 10 mL of 1× Assay Buffer, combine 1× Base Buffer (9.96 mL), 1 M DTT (40 uL), and 10% Tween-20 (1 uL) to provide a final concentration of 50 mM Tris-HCl, pH 8, 2 mM MgCl2, 4 mM DTT, 0.001% Tween-20. • 9. 2× Enzyme Solution: Per 10 mL of 2× Enzyme Solution, combine 1× Assay Buffer (9.99 mL) and 3.24 uM EZH2 5 member complex (6.17 uL) to provide a final enzyme concentration of 1 nM. • 10. SPA Bead Solution: Per 1 mL of SPA Bead Solution, combine Streptavidin coated SPA beads (PerkinElmer, Cat#RPNQ0261, 40 mg) and 1× Assay Buffer (1 mL) to provide a working concentration of 40 mg/mL. • 11. 2× Substrate Solution: Per 10 mL of 2× Substrate Solution, combine 40 mg/mL SPA Bead Solution (375 uL), 1 mM biotinylated histone H3K27 peptide (200 uL), 12.5 uM 3H-SAM (240 uL; 1 mCi/mL), 1 mM cold SAM (57 uL), and 1× Assay Buffer (9.13 mL) to provide a final concentration of 0.75 mg/mL SPA Bead Solution, 10 uM biotinylated histone H3K27 peptide, 0.15 uM 3H-SAM (˜12 uCi/mL 3H-SAM), and 2.85 uM cold SAM. • 12. 2.67× Quench Solution: Per 10 mL of 2.67× Quench Solution, combine 1× Assay Buffer (9.73 mL) and 10 mM cold SAM (267 uL) to provide a final concentration of 100 uM cold SAM. Part C. Assay Reaction in 384-well Grenier Bio-One Plates Compound Addition • 3. Stamp 10 nL/well of 1000× Compound to test wells (as noted above). • 4. Stamp 10 nL/well of 100% DMSO to columns 6 & 18 (high and low controls, respectively). Assay • 10. Dispense 5 uL/well of 1× Assay Buffer to column 18 (low control reactions). • 11. Dispense 5 uL/well of 2× Substrate Solution to columns 1-24 (note: substrate solution should be mixed to ensure homogeneous bead suspension before dispensing into matrix reservoir). • 12. Dispense 5 uL/well of 2× Enzyme Solution to columns 1-17, 19-24. • 13. Incubate the reaction for 60 min at room temperature. Quench • 5. Dispense 6 uL/well of the 2.67× Quench Solution to columns 1-24. • 6. Seal assay plates and spin for ˜1 min at 500 rpm. • 7. Dark adapt plates in the ViewLux instrument for 15-60 min. Read plates • 2. Read the assay plates on the Viewlux Plate Reader utilizing the 613 nm emission filter or clear filter (300 s exposure). Reagent addition can be done manually or with automated liquid handler. Results
# Percent inhibition was calculated relative to the DMSO control for each compound concentration and the resulting values were fit using standard IC50 fitting parameters within the ABASE data fitting software package.
# Chain of EZH2 within the PRC2 complex (Q15910 whole entry): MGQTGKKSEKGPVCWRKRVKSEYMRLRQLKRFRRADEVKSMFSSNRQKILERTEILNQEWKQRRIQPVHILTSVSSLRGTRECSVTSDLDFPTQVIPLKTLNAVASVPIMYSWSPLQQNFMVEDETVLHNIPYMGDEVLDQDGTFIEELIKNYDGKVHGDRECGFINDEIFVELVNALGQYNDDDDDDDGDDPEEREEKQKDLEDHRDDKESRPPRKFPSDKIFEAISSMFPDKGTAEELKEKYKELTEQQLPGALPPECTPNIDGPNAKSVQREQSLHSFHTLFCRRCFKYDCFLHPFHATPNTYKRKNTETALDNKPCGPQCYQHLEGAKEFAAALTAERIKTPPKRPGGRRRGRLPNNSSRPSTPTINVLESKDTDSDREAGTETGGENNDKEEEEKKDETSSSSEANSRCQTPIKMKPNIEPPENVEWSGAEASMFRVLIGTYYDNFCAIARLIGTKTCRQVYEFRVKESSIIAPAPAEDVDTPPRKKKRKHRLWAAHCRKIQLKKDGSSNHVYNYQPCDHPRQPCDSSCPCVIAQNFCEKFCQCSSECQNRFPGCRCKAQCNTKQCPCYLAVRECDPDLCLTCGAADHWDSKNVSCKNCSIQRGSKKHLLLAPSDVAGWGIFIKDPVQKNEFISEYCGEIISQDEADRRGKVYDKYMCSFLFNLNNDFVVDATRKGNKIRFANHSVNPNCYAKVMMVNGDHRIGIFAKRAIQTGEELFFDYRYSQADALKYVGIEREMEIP
# Chain of EZH2 within the PRC2 complex (O75530 whole entry partner): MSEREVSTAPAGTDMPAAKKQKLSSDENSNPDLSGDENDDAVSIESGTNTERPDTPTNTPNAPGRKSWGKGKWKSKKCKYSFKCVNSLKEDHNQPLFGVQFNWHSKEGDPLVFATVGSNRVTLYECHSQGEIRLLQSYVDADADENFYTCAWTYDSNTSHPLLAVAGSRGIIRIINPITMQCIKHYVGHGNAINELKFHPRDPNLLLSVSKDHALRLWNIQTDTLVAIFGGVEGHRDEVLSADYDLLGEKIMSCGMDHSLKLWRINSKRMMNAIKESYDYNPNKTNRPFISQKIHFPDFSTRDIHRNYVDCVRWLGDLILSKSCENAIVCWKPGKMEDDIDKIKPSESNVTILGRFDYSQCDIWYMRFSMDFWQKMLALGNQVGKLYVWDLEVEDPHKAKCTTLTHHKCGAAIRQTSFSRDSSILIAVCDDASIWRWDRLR
# Chain of EZH2 within the PRC2 complex (Q15022 whole entry partner): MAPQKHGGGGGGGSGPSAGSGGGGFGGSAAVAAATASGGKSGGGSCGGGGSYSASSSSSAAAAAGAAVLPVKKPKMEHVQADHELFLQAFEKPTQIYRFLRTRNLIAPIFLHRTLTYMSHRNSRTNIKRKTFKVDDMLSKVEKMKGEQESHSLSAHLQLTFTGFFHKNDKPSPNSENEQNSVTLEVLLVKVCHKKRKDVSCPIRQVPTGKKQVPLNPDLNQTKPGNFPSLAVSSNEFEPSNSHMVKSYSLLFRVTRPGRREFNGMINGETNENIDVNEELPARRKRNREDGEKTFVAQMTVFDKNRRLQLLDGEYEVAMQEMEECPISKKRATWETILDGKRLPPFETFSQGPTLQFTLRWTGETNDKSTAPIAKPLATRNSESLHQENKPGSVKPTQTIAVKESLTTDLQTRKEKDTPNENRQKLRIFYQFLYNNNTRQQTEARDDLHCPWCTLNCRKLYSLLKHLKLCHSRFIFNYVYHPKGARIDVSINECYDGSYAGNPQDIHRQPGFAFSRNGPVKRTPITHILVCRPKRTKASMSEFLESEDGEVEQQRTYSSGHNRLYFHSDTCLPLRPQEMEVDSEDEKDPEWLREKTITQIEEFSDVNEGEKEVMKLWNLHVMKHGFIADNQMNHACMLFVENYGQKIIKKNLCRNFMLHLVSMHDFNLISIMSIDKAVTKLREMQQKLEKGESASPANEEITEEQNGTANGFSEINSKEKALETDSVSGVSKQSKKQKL
# Chain of EZH2 within the PRC2 complex (Q09028 whole entry partner): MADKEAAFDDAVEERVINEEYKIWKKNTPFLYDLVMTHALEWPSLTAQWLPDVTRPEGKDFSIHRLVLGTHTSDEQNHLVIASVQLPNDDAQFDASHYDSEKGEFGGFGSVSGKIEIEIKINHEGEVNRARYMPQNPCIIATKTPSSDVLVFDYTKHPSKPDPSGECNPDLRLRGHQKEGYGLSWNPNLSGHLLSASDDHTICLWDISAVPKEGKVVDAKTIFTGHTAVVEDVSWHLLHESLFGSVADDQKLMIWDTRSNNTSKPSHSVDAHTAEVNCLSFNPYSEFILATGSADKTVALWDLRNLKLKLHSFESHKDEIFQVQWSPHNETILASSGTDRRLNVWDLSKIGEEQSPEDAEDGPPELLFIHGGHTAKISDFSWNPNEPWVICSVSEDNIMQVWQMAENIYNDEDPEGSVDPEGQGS
# Chain of EZH2 within the PRC2 complex (Q6ZN18 whole entry partner): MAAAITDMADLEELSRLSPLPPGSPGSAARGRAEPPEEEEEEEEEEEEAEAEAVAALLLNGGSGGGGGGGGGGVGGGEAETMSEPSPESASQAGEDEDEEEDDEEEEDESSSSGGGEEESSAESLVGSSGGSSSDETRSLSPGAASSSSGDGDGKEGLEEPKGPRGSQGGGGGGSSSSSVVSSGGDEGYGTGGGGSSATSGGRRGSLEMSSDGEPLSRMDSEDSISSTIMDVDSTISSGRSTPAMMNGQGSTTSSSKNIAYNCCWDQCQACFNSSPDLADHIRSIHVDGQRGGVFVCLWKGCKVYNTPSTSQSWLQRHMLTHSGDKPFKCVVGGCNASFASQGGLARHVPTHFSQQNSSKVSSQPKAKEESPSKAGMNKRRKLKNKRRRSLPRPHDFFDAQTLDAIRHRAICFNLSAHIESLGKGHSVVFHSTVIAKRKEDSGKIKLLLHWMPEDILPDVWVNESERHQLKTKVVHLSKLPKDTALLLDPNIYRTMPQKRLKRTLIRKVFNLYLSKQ
row,Compound,IC50
1,"CCN(c1sc(C2CCNCC2)c(C(=O)NCc2c(C)cc(C)[nH]c2=O)c1C)C1CCOCC1 [Example 60, N-((4,6-Dimethyl-2-oxo-1,2-dihydropyridin-3-yl)methyl)-5-(ethyl(tetrahydro-2H-pyran-4-yl)amino)-4-methyl-2-(piperidin-4-yl)thiophene-3-carboxamide hydrochloride]",631 nM
2,"CCOC(=O)N(CC)c1scc(C(=O)NCc2c(C)cc(C)[nH]c2=O)c1C [Example 65, Ethyl (4-(((4,6-dimethyl-2-oxo-1,2-dihydropyridin-3-yl)methyl)carbamoyl)-3-methylthiophen-2-yl)(ethyl)carbamate]",200 nM
3,"Cc1cc(C)c(CNC(=O)c2csc(C(O)[C@H]3CC[C@H](N)CC3)c2C)c(=O)[nH]1 (stereo partly drawn) [Example 37, 5-(((trans)-4-Aminocyclohexyl)(hydroxy)methyl)-N-((4,6-dimethyl-2-oxo-1,2-dihydropyridin-3-yl)methyl)-4-methylthiophene-3-carboxamide]",501 nM
4,"CCN(c1sc(C2CCN(C(=O)OC(C)(C)C)C2)c(C(=O)NCc2c(C)cc(C)[nH]c2=O)c1C)C1CCOCC1 (stereo not drawn) [Example 57, tert-Butyl 3-(3-(((4,6-dimethyl-2-oxo-1,2-dihydropyridin-3-yl)methyl)carbamoyl)-5-(ethyl(tetrahydro-2H-pyran-4-yl)amino)-4-methylthiophen-2-yl)pyrrolidine-1-carboxylate]",200 nM
5,"CCN(c1scc(C(=O)NCc2c(C)cc(C)[nH]c2=O)c1C)C1CCNCC1F (stereo not drawn) [Example 67, N-((4,6-dimethyl-2-oxo-1,2-dihydropyridin-3-yl)methyl)-5-(ethyl(3-fluoropiperidin-4-yl)amino)-4-methylthiophene-3-carboxamide]",20 nM
6,"Cc1cc(C)c(CNC(=O)c2csc(C(O)[C@H]3CC[C@H](N(C)C)CC3)c2C)c(=O)[nH]1 (stereo partly drawn) [Example 38, N-((4,6-dimethyl-2-oxo-1,2-dihydropyridin-3-yl)methyl)-5-(((trans)-4-(dimethylamino)cyclohexyl)(hydroxy)methyl)-4-methylthiophene-3-carboxamide]",158 nM
7,"CC[C@H](c1scc(C(=O)NCc2c(C)cc(C)[nH]c2=O)c1C)N1CCC(N(C)C)CC1 [Example 42, (R)-(+)-N-((4,6-dimethyl-2-oxo-1,2-dihydropyridin-3-yl)methyl)-5-(1-(4-(dimethylamino)piperidin-1-yl)propyl)-4-methylthiophene-3-carboxamide]",316 nM
8,"CCN(c1sc(C2CCNC2)c(C(=O)NCc2c(C)cc(C)[nH]c2=O)c1C)C1CCOCC1 (stereo not drawn) [Example 58, N-((4,6-Dimethyl-2-oxo-1,2-dihydropyridin-3-yl)methyl)-5-(ethyl(tetrahydro-2H-pyran-4-yl)amino)-4-methyl-2-(pyrrolidin-3-yl)thiophene-3-carboxamide hydrochloride]",794 nM
9,"CCN(c1scc(C(=O)NCc2c(C)cc(C)[nH]c2=O)c1C)C1CCN(C(C)C)CC1 [Example 66, N-((4,6-dimethyl-2-oxo-1,2-dihydropyridin-3-yl)methyl)-5-(ethyl(1-isopropylpiperidin-4-yl)amino)-4-methylthiophene-3-carboxamide]",63 nM
10,"CCN(CC)c1sc(Br)c(C(=O)NCc2c(C)cc(C)[nH]c2=O)c1C [Example 52, 2-Bromo-5-(diethylamino)-N-((4,6-dimethyl-2-oxo-1,2-dihydropyridin-3-yl)methyl)-4-methylthiophene-3-carboxamide]",316 nM

# More lines, now with the values ahead:
row,IC50,Compound
1,100 nM,"Cc1cc(C)c(CNC(=O)c2csc(-c3cccc4c3CCNC4)c2C)c(=O)[nH]1 [Example 70, N-((4,6-Dimethyl-2-oxo-1,2-dihydropyridin-3-yl)methyl)-4-methyl-5-(1,2,3,4-tetrahydroisoquinolin-5-yl)thiophene-3-carboxamide hydrochloride]"
2,32 nM,"CCN(c1sc(C)c(C(=O)NCc2c(C)cc(C)[nH]c2=O)c1C)C1CCOCC1 [Example 54, N-((4,6-Dimethyl-2-oxo-1,2-dihydropyridin-3-yl)methyl)-5-(ethyl(tetrahydro-2H-pyran-4-yl)amino)-2,4-dimethylthiophene-3-carboxamide hydrochloride]"
3,32 nM,"CCN(c1sc(-c2ccoc2)c(C(=O)NCc2c(C)cc(C)[nH]c2=O)c1C)[C@H]1CC[C@H](N(C)C)CC1 [Example 77, N-((4,6-dimethyl-2-oxo-1,2-dihydropyridin-3-yl)methyl)-5-(((trans)-4-(dimethylamino)cyclohexyl)(ethyl)amino)-2-(furan-3-yl)-4-methylthiophene-3-carboxamide]"
4,20 nM,"CCC(c1scc(C(=O)NCc2c(C)cc(C)[nH]c2=O)c1C)[C@H]1CC[C@H](N(C)C)CC1 (single isomer, unassigned; (-)) [Example 44, (−)-N-((4,6-Dimethyl-2-oxo-1,2-dihydropyridin-3-yl)methyl)-5-(1-((trans)-4-(dimethylamino)cyclohexyl)propyl)-4-methylthiophene-3-carboxamide]"
5,≤ 10 nM,"CCC(c1scc(C(=O)NCc2c(C)cc(C)[nH]c2=O)c1C)[C@H]1CC[C@H](N(C)C)CC1 (single isomer, unassigned; (+)) [Example 45, (+)-N-((4,6-Dimethyl-2-oxo-1,2-dihydropyridin-3-yl)methyl)-5-(1-((trans)-4-(dimethylamino)cyclohexyl)propyl)-4-methylthiophene-3-carboxamide]"
6,126 nM,"CCC(CCCN1CCN(C)CC1)c1scc(C(=O)NCc2c(C)cc(C)[nH]c2=O)c1C (stereo not drawn) [Example 73, N-((4,6-Dimethyl-2-oxo-1,2-dihydropyridin-3-yl)methyl)-4-methyl-5-(6-(4-methylpiperazin-1-yl)hexan-3-yl)thiophene-3-carboxamide]"
7,≤ 10 nM,"C/C=C(/c1scc(C(=O)NCc2c(C)cc(C)[nH]c2=O)c1C)C1CCNCC1 [Example 33, (E)-N-((4,6-Dimethyl-2-oxo-1,2-dihydropyridin-3-yl)methyl)-4-methyl-5-(1-(piperidin-4-yl)prop-1-en-1-yl)thiophene-3-carboxamide]"
8,13 nM,"C/C=C(/c1scc(C(=O)NCc2c(C)cc(C)[nH]c2=O)c1C)[C@H]1CC[C@H](N)CC1 [Example 35, 5-((E)-1-((trans)-4-Aminocyclohexyl)prop-1-en-1-yl)-N-((4,6-dimethyl-2-oxo-1,2-dihydropyridin-3-yl)methyl)-4-methylthiophene-3-carboxamide]"
9,50 nM,"CCC(c1scc(C(=O)NCc2c(C)cc(C)[nH]c2=O)c1C)C1CCN(C(=O)OC(C)(C)C)CC1 (stereo not drawn) [Example 39, tert-Butyl 4-(1-(4-(((4,6-dimethyl-2-oxo-1,2-dihydropyridin-3-yl)methyl)carbamoyl)-3-methylthiophen-2-yl)propyl)piperidine-1-carboxylate]"
10,126 nM,"C=C(c1scc(C(=O)NCc2c(C)cc(C)[nH]c2=O)c1C)C1CCNCC1 [Example 49, N-((4,6-dimethyl-2-oxo-1,2-dihydropyridin-3-yl)methyl)-4-methyl-5-(1-(piperidin-4-yl)vinyl)thiophene-3-carboxamide]"
11,20 nM,"CCC(c1scc(C(=O)NCc2c(C)cc(C)[nH]c2=O)c1C)C1CCNCC1 (stereo not drawn) [Example 40, N-((4,6-Dimethyl-2-oxo-1,2-dihydropyridin-3-yl)methyl)-4-methyl-5-(1-(piperidin-4-yl)propyl)thiophene-3-carboxamide]"
